From patent publication US9815847B2 (Icahn School of Medicine at Mount Sinai, priority 2013, dated 2017)

Experiments:
[1] = target: T1, ABL1 (H396P) (Homo sapiens, UniProt P00519, H396P); assay: Inhibition of ABL mutants, kinase assay; format: biochemical; conditions: 10 μM ATP; 5-dose IC50 mode
T1 construct: purchased Reaction Biology Corporation
Protocol: Kinase assays were performed at Reaction Biology Corporation. To a freshly prepared buffer solution was added the target kinase at a concentration of […]. The contents were mixed gently, and then compound (8h) dissolved in DMSO was added to the reaction mixture in the appropriate concentration. The mixture was incubated at room temperature for 30 min. prior to addition of ATP to initiate the reaction. Compound (8h) was tested in a 5-dose IC50 mode with 10-fold serial dilutions starting at 10 μM. Staurosporine was used as a control compound in a 10-dose IC50 mode with 3-fold serial dilutions starting at 20 μM. Reaction was carried out at 10 μM ATP concentration.

[2] = test system: ASPC-1; assay: Cytotoxicity assay, dose response end point; format: cell-based; conditions: Homo sapiens, ASPC1; ASPC-1, pancreatic adenocarcinoma; 96 h
Protocol: (§1) The following tumor cell lines were tested using a dose response end point assay system with compound (8h). The cells were grown in either DMEM or RPMI supplemented with 10% fetal bovine serum and 1 unit/mL Penicillin-Streptomycin solution. The tumor cells were plated into 6-well dishes at a cell density of 1.0×10^5 cells/mL/well and the test compound was added 24 h. later at various concentrations. Cell counts were determined from duplicate wells after 96 h. of treatment. The total number of viable cells was determined by trypan blue exclusion.

[3] = test system: KG-1a; assay: Cytotoxicity assay, dose response end point; format: cell-based; conditions: Homo sapiens, acute myelogenous leukemia, 96 h
Protocol: as §1

[4] = test system: K562; assay: Cytotoxicity assay, dose response end point; format: cell-based; conditions: Homo sapiens; K562, chronic myelogenous leukemia; 96 h
Protocol: as §1

[5] = test system: CAPAN-1; assay: Cytotoxicity assay, dose response end point; format: cell-based; conditions: Homo sapiens; CAPAN-1, pancreatic ductal adenocarcinoma; 96 h
Protocol: as §1

[6] = test system: HPAF-II; assay: Cytotoxicity assay, dose response end point; format: cell-based; conditions: Homo sapiens, pancreatic adenocarcinoma, 96 h
Protocol: as §1

[7] = test system: HL-60; assay: Cytotoxicity assay, dose response end point; format: cell-based; conditions: Homo sapiens; HL-60, promyelocytic leukaemia; 96 h
Protocol: as §1

[8] = test system: U266; assay: Cytotoxicity assay, dose response end point; format: cell-based; conditions: Homo sapiens, U-266; U266, multiple myeloma; 96 h
Protocol: as §1

[9] = test system: HT-29; assay: Cytotoxicity assay, dose response end point; format: cell-based; conditions: Homo sapiens; HT-29, colonic adenocarcinoma; 96 h
Protocol: as §1

[10] = test system: BXPC-3; assay: Cytotoxicity assay, dose response end point; format: cell-based; conditions: Homo sapiens; BXPC-3, pancreatic adenocarcinoma; 96 h
Protocol: as §1

[11] = test system: A431; assay: Cytotoxicity assay, dose response end point; format: cell-based; conditions: Homo sapiens, A-431; A431, epidermoid carcinoma; 96 h
Protocol: as §1

[12] = test system: RAJI; assay: Cytotoxicity assay, dose response end point; format: cell-based; conditions: Homo sapiens, Burkitt's lymphoma, 96 h
Protocol: as §1

[13] = test system: DAUDI; assay: Cytotoxicity assay, dose response end point; format: cell-based; conditions: Homo sapiens, Burkitt's lymphoma, 96 h
Protocol: as §1

[14] = test system: PANC 10.05; assay: Cytotoxicity assay, dose response end point; format: cell-based; conditions: Homo sapiens, Panc1005; PANC 10.05, pancreatic adenocarcinoma; 96 h
Protocol: as §1

[15] = test system: Nalmalwa; assay: Cytotoxicity assay, dose response end point; format: cell-based; conditions: Burkitt's lymphoma, 96 h
Protocol: as §1

[16] = test system: SU.86.86; assay: Cytotoxicity assay, dose response end point; format: cell-based; conditions: Homo sapiens; SU.86.86, pancreatic ductal carcinoma; 96 h
Protocol: as §1

[17] = test system: MIA-PaCa-2; assay: Cytotoxicity assay, dose response end point; format: cell-based; conditions: Homo sapiens; MIA-PaCa-2, pancreatic carcinoma; 96 h
Protocol: as §1

[18] = test system: HL-60/MX2; assay: Cytotoxicity assay, dose response end point; format: cell-based; conditions: Homo sapiens, HL60/MX2; HL-60/MX2, promyelocytic leukaemia; 96 h
Protocol: as §1

[19] = test system: HELA; assay: Cytotoxicity assay, dose response end point; format: cell-based; conditions: Homo sapiens, Cervical adenocarinoma, 96 h
Protocol: as §1

[20] = test system: HFL-1; assay: Cytotoxicity assay, dose response end point; format: cell-based; conditions: Homo sapiens, HFL1; HFL-1, fetal lung fibroblast; 96 h
Protocol: as §1

[21] = test system: BT474; assay: Cytotoxicity assay, dose response end point; format: cell-based; conditions: Homo sapiens, BT-474; BT474, Breast carcinoma; 96 h
Protocol: as §1

[22] = test system: U937; assay: Cytotoxicity assay, dose response end point; format: cell-based; conditions: Homo sapiens, U-937; U937, histiocytic lymphoma; 96 h
Protocol: as §1

[23] = test system: HCT-116; assay: Cytotoxicity assay, dose response end point; format: cell-based; conditions: Homo sapiens; HCT-116, colon cancer; 96 h
Protocol: as §1

[24] = test system: CEM/C2; assay: Cytotoxicity assay, dose response end point; format: cell-based; conditions: Homo sapiens; CEM/C2, T-cell leukemia; 96 h
Protocol: as §1

[25] = test system: Z138C; assay: Cytotoxicity assay, dose response end point; format: cell-based; conditions: mantle cell lymphoma, 96 h
Protocol: as §1

[26] = test system: PANC 03.27; assay: Cytotoxicity assay, dose response end point; format: cell-based; conditions: Homo sapiens, PANC-03-27; PANC 03.27, Pancreatic adenocarcinoma; 96 h
Protocol: as §1

[27] = test system: MOLT-4; assay: Cytotoxicity assay, dose response end point; format: cell-based; conditions: Homo sapiens; MOLT-4, acute lymphoblastic leukemia; 96 h
Protocol: as §1

[28] = test system: HEL; assay: Cytotoxicity assay, dose response end point; format: cell-based; conditions: human erythroleukemia, 96 h
Protocol: as §1

[29] = test system: 32D-T315I; assay: Cytotoxicity assay, dose response end point; format: cell-based; conditions: chronic myelogenous leukemia, 96 h
Protocol: as §1

[30] = test system: HCT-15; assay: Cytotoxicity assay, dose response end point; format: cell-based; conditions: Homo sapiens; HCT-15, Dukes' type C colorectal adenocarcinoma; 96 h
Protocol: as §1

[31] = test system: MES-SA; assay: Cytotoxicity assay, dose response end point; format: cell-based; conditions: Homo sapiens, uterine sarcoma, 96 h
Protocol: as §1

[32] = test system: MES-SA/DX5; assay: Cytotoxicity assay, dose response end point; format: cell-based; conditions: Homo sapiens; MES-SA/DX5, Uterine sarcoma; 96 h
Protocol: as §1

[33] = test system: CEM; assay: Cytotoxicity assay, dose response end point; format: cell-based; conditions: Homo sapiens, CCRF-CEM, T-cell leukemia, 96 h
Protocol: as §1

[34] = test system: DU145; assay: Cytotoxicity assay, dose response end point; format: cell-based; conditions: Homo sapiens, DU-145; DU145, prostate carcinoma; 96 h
Protocol: as §1

## CN1CCN(c2ccc(Nc3ncc(/C=C/C#N)c(NC4CCCC4)n3)cc2)CC1 [Compound 8h, 3-{4-Cyclopentylamino-2-[4-(4-methylpiperazin-1-yl)phenylamino]pyrimidin-5-yl}acrylonitrile]
[1]
  IC50: < 100 nM
[2]
  GI50: > 5000 nM
[3]
  GI50: < 20 nM
[4]
  GI50: 40 nM
[5]
  GI50: 100 nM
[6]
  GI50: 5000 nM
[7]
  GI50: 500 nM
[8]
  GI50: 1000 nM
[9]
  GI50: 50 nM
[10]
  GI50: 100 nM
[11]
  GI50: 100 nM
[12]
  GI50: < 20 nM
[13]
  GI50: 100 nM
[14]
  GI50: > 5000 nM
[15]
  GI50: 200 nM
[16]
  GI50: 5000 nM
[17]
  GI50: > 5000 nM
[18]
  GI50: 250 nM
[19]
  GI50: > 5000 nM
[20]
  GI50: 100 nM
[21]
  GI50: 2500 nM
[22]
  GI50: 100 nM
[23]
  GI50: 500 nM
[24]
  GI50: 1500 nM
[25]
  GI50: 3000 nM
[26]
  GI50: 3000 nM
[27]
  GI50: 100 nM
[28]
  GI50: < 250 nM
[29]
  GI50: 500 nM
[30]
  GI50: 30 nM
[31]
  GI50: 20 nM
[32]
  GI50: < 20 nM
[33]
  GI50: 1500 nM
[34]
  GI50: < 500 nM
